The source of these data is PubChem BioAssay (NCI).

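48-hour exposure; five concentrations; linearly interpolated endpoints. TGI denotes the concentration required for complete inhibition of growth.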

Among the test systems are A498 renal; SK-MEL-2 melanoma; SNB-75 CNS; SN12C renal; U251 CNS; HL-60(TB) leukemia; NCI-H23 lung; HCC-2998 colon; HT29 colon; NCI-H226 lung; MDA-MB-231 breast; MCF7 breast; SK-MEL-28 melanoma; SR leukemia; PC-3 prostate; UACC-62 melanoma; SF-539 CNS; LOX IMVI melanoma; T-47D breast; M14 melanoma.
What all share (test): growth of human tumour cells (NCI), 48 h

In the case of `Cn1c2c3ccc(Cl)cc3nc-2c(Cl)c2ccccc21`, the TGI was 45.1 µM with A498 renal; 48.2 µM in the experiment on SK-MEL-2 melanoma; 55.1 µM with SNB-75 CNS; 34.5 µM in the experiment on SN12C renal; above 100 µM in the experiment with U251 CNS; above 100 µM in the experiment on HL-60(TB) leukemia. The TGI in the experiment on NCI-H23 lung is 36.1 µM; with HCC-2998 colon, 20.5 µM; in the experiment with HT29 colon it was 49.9 µM; with NCI-H226 lung, 62.5 µM; with MDA-MB-231 breast, 97.8 µM; with MCF7 breast, above 100 µM. The TGI is 43.9 µM with SK-MEL-28 melanoma; above 100 µM in the experiment with SR leukemia; 38.1 µM in the experiment with PC-3 prostate; 50.8 µM with UACC-62 melanoma; 49.2 µM in the experiment with SF-539 CNS; 72.3 µM in the experiment on LOX IMVI melanoma. Also, the TGI with T-47D breast was above 100 µM; with M14 melanoma it was 61.3 µM.

Turning to `N#Cc1nc(C(CO)N(Cc2ccccc2)C(=O)O)oc1N` (stereo not given), the TGI in the experiment with A498 renal, in the experiment with SK-MEL-2 melanoma, in the experiment on SNB-75 CNS, in the experiment on SN12C renal, in the experiment on U251 CNS and in the experiment with HL-60(TB) leukemia was above 100 µM in each case. For the same compound, the TGI in the experiment with NCI-H23 lung, in the experiment on HCC-2998 colon, with HT29 colon, in the experiment on NCI-H226 lung, in the experiment on MDA-MB-231 breast and in the experiment with MCF7 breast was above 100 µM each time. Further, the TGI in the experiment with SK-MEL-28 melanoma, in the experiment on SR leukemia, in the experiment on PC-3 prostate, with UACC-62 melanoma, in the experiment with SF-539 CNS and in the experiment on LOX IMVI melanoma was above 100 µM each time. In addition, the TGI in the experiment with T-47D breast and in the experiment on M14 melanoma was above 100 µM throughout.

`O=c1[nH]cnc2c1ncn2[C@@H]1C[C@H]1CO`: the TGI with A498 renal, in the experiment on SK-MEL-2 melanoma, in the experiment on SNB-75 CNS, in the experiment with SN12C renal, with U251 CNS and with HL-60(TB) leukemia was above 100 µM throughout. In addition, the TGI with NCI-H23 lung, in the experiment on HCC-2998 colon, in the experiment on HT29 colon, in the experiment with NCI-H226 lung, with MDA-MB-231 breast and in the experiment on MCF7 breast was above 100 µM each time. Also, the TGI in the experiment with SK-MEL-28 melanoma, in the experiment on SR leukemia, with PC-3 prostate, in the experiment on UACC-62 melanoma, in the experiment on SF-539 CNS and in the experiment with LOX IMVI melanoma was above 100 µM throughout. Moreover, the TGI in the experiment on T-47D breast and in the experiment with M14 melanoma was above 100 µM in each case.

For `Cc1ccc(NC2=N/C(=C/c3ccccc3)C(Cl)=N2)cc1`, the TGI with A498 renal is above 100 µM; with SK-MEL-2 melanoma, above 100 µM; with SNB-75 CNS, above 100 µM; in the experiment on SN12C renal, above 100 µM; with U251 CNS it was above 100 µM; in the experiment on HL-60(TB) leukemia, above 63.3 µM. Moreover, the TGI with NCI-H23 lung, in the experiment on HCC-2998 colon, in the experiment with HT29 colon, in the experiment with NCI-H226 lung, in the experiment with MDA-MB-231 breast and in the experiment with MCF7 breast was above 100 µM in each case. The TGI was above 100 µM in the experiment with SK-MEL-28 melanoma; 98.2 µM with SR leukemia; above 100 µM in the experiment on PC-3 prostate; above 100 µM in the experiment on UACC-62 melanoma; above 100 µM in the experiment on SF-539 CNS; above 100 µM with LOX IMVI melanoma. Also, the TGI with T-47D breast and in the experiment on M14 melanoma was above 100 µM each time.
